According to PubChem BioAssay AID1918944 (Molecular Pharmacology Branch, DTP, NCI, 2023):
Several values for one entry are separate records, joined by “and”; a condition that tells them apart may be missing. Equal values may be shown once.

Test system: 786-0 complex spheroid viability
Assay: Anticancer human tumor 786-0 cell line growth inhibition;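 further: spheroids exposed to agents for seven days before readout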
Settings: for viability, T/C: stronger effect = lower value
Text: Multicellular complex tumor spheroid response to LSD1 Inhibitor Iadademstat in combination with a variety of drugs and investigational agents in selected tumor cell lines
The current study was undertaken to assess response to LSD1 inhibitors in combination with standard-of-care drugs and investigational agents in solid tumor complex spheroid models as well as in the K-562 leukemia. Complex spheroids include a stromal component modeled by human endothelial cells (HUVEC) and fibroblasts modeled by human mesenchymal stem cells (MSCs). The concentration ranges selected for each drug and investigational agent were based upon clinically achievable concentrations if the clinical Cmax of the agent was known.
Compounds. The drugs and investigational agents used in this study are listed on Table 1. All of the agents used, including staurosporine (NSC755774) and gemcitabine (NSC613327), were obtained from the Developmental Therapeutics Program, NCI. FDA-approved anticancer drugs are available from the NCI at http://dtp.nci.nih.gov/branches/dscb/oncology_drugset_explanation.html. Drugs and investigational agents were >95% pure by proton nuclear magnetic resonance (NMR) and liquid chromatography/mass spectrometry (LC/MS). Stock solutions were prepared at 400x in DMSO, stored at -70 degrees C, and diluted in fresh medium prior to their use. The final concentration of DMSO in cell culture wells never exceeded 0.25% (v/v). The FDA-approved anticancer drug set is available from the Developmental Therapeutics Program at https://dtp.cancer.gov/organization/dscb/obtaining/available_plates.htm. All drugs and investigational agents were tested over a range starting from a high concentration at or near the clinical Cmax and decreasing in half-log increments. If the clinical Cmax for an agent had not been determined, the highest concentration tested was 10 microM.
Cell Lines. The patient-derived cancer cell (PDC) lines: 292921-168-R-J2-PDC, K24384-001-R-PDC, and 521955-158-R2-J5-PDC pancreatic carcinomas, 556581-035-R-J1 ovarian carcinoma, 324938-238-R-J1-PDC, 855422-203-R-J1-PDC and 883617-216-R-J1-PDC urothelial bladder carcinomas, 743489-274-T-PDC renal cell carcinoma, 138582-R-J1 Merkel cell tumor, K60290-347-R-J1 and K57222-313-R-J1-PDC glioblastomas, 653999-131-R-J2-PDC, LG0703-F948-PDC, and 349418-098-R-PDC non-small cell lung carcinomas, 885512-296-R-J2-PDC, 171881-019-R-J1-PDC breast carcinomas and 186277-243-T-J2-PDC and 233499-124-R-J2-PDC colon carcinomas were obtained from the NCI Patient-Derived Models Repository (PDMR, https://pdmr.cancer.gov). The established cell lines NCI/ADR-RES (RRID:CVCL_14520 and OVCAR-5 (RRID:CVCL_1628) ovarian carcinomas, 786-O (RRID:CVCL_1051) and A498 (RRID:CVCL_A498) renal cell carcinoma, NCI-H211 (ATCC, cat. CRL-5824; RRID:CVCL_1529), NCI-H196 (ATCC, cat. CRL-5823, RRID:CVCL_1509), SW 1271 (ATCC, cat. CRL-2177, RRID:CVCL_1716) and NCI-H1876 (ATCC, cat. CRL-5902, RRID:CVCL_1503) small cell lung carcinomas, MDA-MB-231 (RRID:CVCL_0062) and MDA-MB-468 (RRID:CVCL_0419)breast carcinomas (10-12). Pooled donor human umbilical vein endothelial cells (HUVEC, Lonza, cat. CC-2519) and human mesenchymal stem cells (hMSC, Lonza, cat. PT-2501) were purchased from Lonza (Walkersville, MD).
Cell Culture. All cells were maintained in an incubator at 37 degrees C and 5% CO2 with 95% humidity. The PDC lines were cultured according to standard operating procedures established by the NCI PDMR (https://pdmr.cancer.gov). Briefly all PDCs were thawed and cultured in Matrigel-coated flasks prepared with a working solution of 1X Ham's F-12 nutrient mix, without supplementation (Invitrogen, Waltham, MA, cat. 11765054), 100 U/mL penicillin-streptomycin (Invitrogen, cat. 15140122), and 2.5% Matrigel (Corning Inc., Corning, NY, cat. 354248) for the first three passages. […]

[1] = curve of first compound, second compound 0.1 µM
[2] = curve of first compound, second compound 0.316 µM
[3] = curve of first compound, second compound 1 µM
[4] = curve of first compound, second compound 3.16 µM
[5] = curve of first compound, second compound 10 µM

For `CC(C)CC(NC(=O)CNC(=O)c1cc(Cl)ccc1Cl)B1OC(=O)CC(CC(=O)O)(C(=O)O)O1` (stereo unspecified) + NC1CC1c1ccc(-c2cccc(O)c2)cc1, the IC50 [1] was 0.0141 µM, the IC50 [2] was 0.0148 µM and the IC50 [3] was 0.0147 µM. It also gave an IC50 [4] of 0.0133 µM, an IC50 [5] of 0.00946 µM and a viability, T/C (second compound 0.1 µM, first compound 0.000316 µM) of 95.1%. It also gave a viability, T/C (second compound 0.1 µM, first compound 0.001 µM) of 106%, a viability, T/C (second compound 0.1 µM, first compound 0.00316 µM) of 93.2% and a viability, T/C (second compound 0.1 µM, first compound 0.01 µM) of 55.9%. The viability, T/C (second compound 0.1 µM, first compound 0.0316 µM) was 33.5%, the viability, T/C (second compound 0.1 µM, first compound 0.1 µM) was 16.6% and the viability, T/C (second compound 0.316 µM, first compound 0.000316 µM) was 111%. For the same compound, the viability, T/C (second compound 0.316 µM, first compound 0.001 µM) was 106%, the viability, T/C (second compound 0.316 µM, first compound 0.00316 µM) was 97.7% and the viability, T/C (second compound 0.316 µM, first compound 0.01 µM) was 59.3%. For the same compound, the viability, T/C (second compound 0.316 µM, first compound 0.0316 µM) was 30.5%, the viability, T/C (second compound 0.316 µM, first compound 0.1 µM) was 17.1% and the viability, T/C (second compound 1 µM, first compound 0.000316 µM) was 101%. It also gave a viability, T/C (second compound 1 µM, first compound 0.001 µM) of 102%, a viability, T/C (second compound 1 µM, first compound 0.00316 µM) of 90.5% and a viability, T/C (second compound 1 µM, first compound 0.01 µM) of 57.6%. For the same compound, the viability, T/C (second compound 1 µM, first compound 0.0316 µM) was 33.2%, the viability, T/C (second compound 1 µM, first compound 0.1 µM) was 17.4% and the viability, T/C (second compound 3.16 µM, first compound 0.000316 µM) was 88.6%. The viability, T/C (second compound 3.16 µM, first compound 0.001 µM) was 100%, the viability, T/C (second compound 3.16 µM, first compound 0.00316 µM) was 88.1% and the viability, T/C (second compound 3.16 µM, first compound 0.01 µM) was 54.6%. For the same compound, the viability, T/C (second compound 3.16 µM, first compound 0.0316 µM) was 31.4%, the viability, T/C (second compound 3.16 µM, first compound 0.1 µM) was 15.6% and the viability, T/C (second compound 10 µM, first compound 0.000316 µM) was 88%. It also gave a viability, T/C (second compound 10 µM, first compound 0.001 µM) of 89.5%, a viability, T/C (second compound 10 µM, first compound 0.00316 µM) of 84% and a viability, T/C (second compound 10 µM, first compound 0.01 µM) of 45.4%. It also gave a viability, T/C (second compound 10 µM, first compound 0.0316 µM) of 27.4% and a viability, T/C (second compound 10 µM, first compound 0.1 µM) of 12.4%.

With `Nc1ncn(C2CC(O)C(CO)S2)c(=O)n1` (stereo unspecified) the viability, T/C (compound 0.000949 µM) was 110% and 99.7%, the viability, T/C (compound 0.003 µM) was 109% and 112% and the viability, T/C (compound 0.00949 µM) was 117% and 112%. The viability, T/C (compound 0.03 µM) was 103% and 102%, the viability, T/C (compound 0.0949 µM) was 67.7% and 83.2% and the viability, T/C (compound 0.3 µM) was 30.5% and 47.9%. For the same compound, the IC50 (curve of compound) was 0.164 µM and 0.28 µM.

For `Cn1ncnc1C1c2n[nH]c(=O)c3cc(F)cc(c23)NC1c1ccc(F)cc1` (stereo unspecified), the viability, T/C (compound 0.000316 µM) was 102% and 101%, the viability, T/C (compound 0.001 µM) was 108% and the viability, T/C (compound 0.00316 µM) was 98.2% and 97.5%. For the same compound, the viability, T/C (compound 0.01 µM) was 98.3% and 97.5%, the viability, T/C (compound 0.0316 µM) was 100% and 92.3% and the viability, T/C (compound 0.1 µM) was 97.7% and 89.8%. It also gave an IC50 (curve of compound) greater than 0.1 µM.

With `CC1COCCN1c1cc(C2(S(C)(=N)=O)CC2)nc(-c2ccnc3[nH]ccc23)n1` (stereo unspecified) the viability, T/C (compound 0.0316 µM) was 101% and 103%, the viability, T/C (compound 0.1 µM) was 99.8% and 99.9% and the viability, T/C (compound 0.316 µM) was 91.4% and 99%. The viability, T/C (compound 1 µM) was 46.4% and 56.3%, the viability, T/C (compound 3.16 µM) was 24.9% and 32.6% and the viability, T/C (compound 10 µM) was 12.3% and 18.9%. For the same compound, the IC50 (curve of compound) was 0.954 µM and 1.38 µM.

`COc1cc(C2c3cc4c(cc3C(OC3OC5COC(C)OC5C(O)C3O)C3COC(=O)C23)OCO4)cc(OC)c1O` (stereo unspecified) + NC1CCC(NC2CC2c2ccccc2)CC1 gave an IC50 [1] of 0.203 µM, an IC50 [2] of 0.216 µM and an IC50 [3] of 0.199 µM. The IC50 [4] was 0.149 µM, the IC50 [5] was 0.115 µM and the viability, T/C (second compound 0.1 µM, first compound 0.00949 µM) was 115%. For the same compound, the viability, T/C (second compound 0.1 µM, first compound 0.03 µM) was 105%, the viability, T/C (second compound 0.1 µM, first compound 0.0949 µM) was 61.1% and the viability, T/C (second compound 0.1 µM, first compound 0.3 µM) was 44.3%. It also gave a viability, T/C (second compound 0.1 µM, first compound 0.949 µM) of 22%, a viability, T/C (second compound 0.1 µM, first compound 3 µM) of 9.16% and a viability, T/C (second compound 0.316 µM, first compound 0.00949 µM) of 122%. The viability, T/C (second compound 0.316 µM, first compound 0.03 µM) was 119%, the viability, T/C (second compound 0.316 µM, first compound 0.0949 µM) was 65.7% and the viability, T/C (second compound 0.316 µM, first compound 0.3 µM) was 45.8%. The viability, T/C (second compound 0.316 µM, first compound 0.949 µM) was 19.4%, the viability, T/C (second compound 0.316 µM, first compound 3 µM) was 8.96% and the viability, T/C (second compound 1 µM, first compound 0.00949 µM) was 118%. For the same compound, the viability, T/C (second compound 1 µM, first compound 0.03 µM) was 110%, the viability, T/C (second compound 1 µM, first compound 0.0949 µM) was 66.4% and the viability, T/C (second compound 1 µM, first compound 0.3 µM) was 40.7%. It also gave a viability, T/C (second compound 1 µM, first compound 0.949 µM) of 18.8%, a viability, T/C (second compound 1 µM, first compound 3 µM) of 8.18% and a viability, T/C (second compound 3.16 µM, first compound 0.00949 µM) of 107%. It also gave a viability, T/C (second compound 3.16 µM, first compound 0.03 µM) of 104%, a viability, T/C (second compound 3.16 µM, first compound 0.0949 µM) of 56.2% and a viability, T/C (second compound 3.16 µM, first compound 0.3 µM) of 34.4%. It also gave a viability, T/C (second compound 3.16 µM, first compound 0.949 µM) of 17.1%, a viability, T/C (second compound 3.16 µM, first compound 3 µM) of 7.91% and a viability, T/C (second compound 10 µM, first compound 0.00949 µM) of 81.6%. It also gave a viability, T/C (second compound 10 µM, first compound 0.03 µM) of 79.6%, a viability, T/C (second compound 10 µM, first compound 0.0949 µM) of 48.1% and a viability, T/C (second compound 10 µM, first compound 0.3 µM) of 33.2%. The viability, T/C (second compound 10 µM, first compound 0.949 µM) was 16.4% and the viability, T/C (second compound 10 µM, first compound 3 µM) was 4.68%.
